Measurements from ChEMBL document CHEMBL5321229, “Conformationally locked sugar derivatives and analogues as potential neuraminidase inhibitors” (Eur J Med Chem, 2023).

Legend:
[1] = Inhibition of hPIV-3 Haemagglutinin-neuraminidase infected in human red blood cells incubated for 90 mins by haemagglutination assay; assay type: cell-based, RBC; details: Human respirovirus 3, Erythrocyte, 1.5 h
[2] = system: Influenza A virus; assay: Antiviral activity against Influenza A virus; assay type: functional, organism-based
[3] = system: Influenza B virus; assay: Antiviral activity against Influenza B virus; assay type: functional, organism-based
[4] = molecular target: Neuraminidase (Influenza A virus, UniProt B4URF0); assay: Inhibition of influenza A virus neuraminidase
[5] = molecular target: Neuraminidase (Influenza A virus (A/Puerto Rico/8/1934(H1N1)), UniProt P03468); assay: Binding affinity to influenza A virus H1N1 (A/Norway/1758/07) neuraminidase using MUNANA as substrate assessed as inhibition constant
[6] = Inhibition of influenza A virus A/Singapore/157 neuraminidase using 2'-(4-methylumbelliferyl)-alpha-D-acetylneuraminic acid as substrate incubated for 10 to 30 mins by fluorescence-based assay
[7] = Inhibition of influenza B virus B/Victoria/70 neuraminidase using 2'-(4-methylumbelliferyl)-alpha-D-acetylneuraminic acid as substrate incubated for 10 to 30 mins by fluorescence-based assay
[8] = Inhibition of influenza A virus A/Anhui/1/2005 H5N1 using MUNANA as substrate preincubated for 45 mins followed by substrate addition by fluorescence based assay
[9] = Inhibition of influenza A virus H12N5 A/Duck/Alberta/60/1976 neuraminidase using MUNANA as substrate incubated for 30 mins followed by substrate addition by fluorescence based assay
[10] = molecular target: Neuraminidase (Influenza A virus (A/Memphis/1/1971(H3N2)), UniProt P03471); assay: Inhibition of influenza A virus H3N2 (A/Moscow/10/99) neuraminidase using MUNANA as substrate preincubated for 30 mins followed by substrate addition by fluorescence-based assay
[11] = system: Influenza A virus; assay: Antiviral activity against influenza A virus A/Hong Kong/1/68 (HK1, H3N2) infected in dog MDCK cells assessed as cytopathic effect; assay type: functional, organism-based
[12] = Inhibition of influenza A virus H5N1 (A/Anhui/2005) neuraminidase using fluorogenic MUNANA as substrate
[13] = Inhibition of Newcastle disease virus neuraminidase using 4-MUNeu5Ac as substrate assessed as reduction in neuraminidase activity incubated for 15 mins by spectrofluorometric analysis
[14] = system: Influenza A virus; assay: Antiviral activity against oseltamivir sensitive wild type Influenza A virus A/Brisbane/59/2007 infected infected in dog MDCK cells assessed as inhibition of viral growth incubated for 4 days by neutral red dye-based assay; assay type: functional; details: A/Brisbane/59/2007, MDCK, 96 h, time 4 day, read-out: ED50 (the source's name)
[15] = Inhibition of Influenza A virus H7N9 VLP neuraminidase using MUNANA as substrate
[16] = Binding affinity to influenza A virus A/HongKong/156/97 (H5N1) neuraminidase using fluorogenic MUN as substrate assessed as inhibition constant

Chain of Neuraminidase (B4URF0 whole entry): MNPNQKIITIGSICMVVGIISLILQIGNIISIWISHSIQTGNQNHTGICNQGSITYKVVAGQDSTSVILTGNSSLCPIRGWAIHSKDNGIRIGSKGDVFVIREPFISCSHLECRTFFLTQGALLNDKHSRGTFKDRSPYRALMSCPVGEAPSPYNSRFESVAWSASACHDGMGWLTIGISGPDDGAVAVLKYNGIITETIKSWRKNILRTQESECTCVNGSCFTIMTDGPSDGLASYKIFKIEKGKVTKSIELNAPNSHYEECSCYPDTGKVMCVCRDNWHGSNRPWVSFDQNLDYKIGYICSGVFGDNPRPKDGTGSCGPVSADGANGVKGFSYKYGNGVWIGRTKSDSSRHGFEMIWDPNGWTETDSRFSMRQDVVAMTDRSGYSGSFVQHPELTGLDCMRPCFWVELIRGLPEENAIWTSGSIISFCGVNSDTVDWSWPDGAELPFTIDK
Chain of Neuraminidase (Influenza A virus (A/Puerto Rico/8/1934(H1N1)), UniProt P03468) (P03468 whole entry): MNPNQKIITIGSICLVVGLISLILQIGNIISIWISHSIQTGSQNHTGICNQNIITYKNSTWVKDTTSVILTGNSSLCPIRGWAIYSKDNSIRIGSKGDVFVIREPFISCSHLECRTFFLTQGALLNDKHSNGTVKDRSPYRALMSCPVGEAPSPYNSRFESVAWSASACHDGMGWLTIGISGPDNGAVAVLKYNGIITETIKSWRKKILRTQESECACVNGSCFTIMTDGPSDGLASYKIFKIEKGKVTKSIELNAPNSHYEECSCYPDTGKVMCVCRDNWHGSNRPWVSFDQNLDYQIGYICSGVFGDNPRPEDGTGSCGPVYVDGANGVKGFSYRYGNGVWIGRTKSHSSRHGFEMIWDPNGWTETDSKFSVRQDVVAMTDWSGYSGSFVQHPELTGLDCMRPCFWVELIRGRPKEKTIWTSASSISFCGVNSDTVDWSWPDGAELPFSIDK
Chain of Neuraminidase (Influenza A virus (A/Memphis/1/1971(H3N2)), UniProt P03471) (P03471 whole entry): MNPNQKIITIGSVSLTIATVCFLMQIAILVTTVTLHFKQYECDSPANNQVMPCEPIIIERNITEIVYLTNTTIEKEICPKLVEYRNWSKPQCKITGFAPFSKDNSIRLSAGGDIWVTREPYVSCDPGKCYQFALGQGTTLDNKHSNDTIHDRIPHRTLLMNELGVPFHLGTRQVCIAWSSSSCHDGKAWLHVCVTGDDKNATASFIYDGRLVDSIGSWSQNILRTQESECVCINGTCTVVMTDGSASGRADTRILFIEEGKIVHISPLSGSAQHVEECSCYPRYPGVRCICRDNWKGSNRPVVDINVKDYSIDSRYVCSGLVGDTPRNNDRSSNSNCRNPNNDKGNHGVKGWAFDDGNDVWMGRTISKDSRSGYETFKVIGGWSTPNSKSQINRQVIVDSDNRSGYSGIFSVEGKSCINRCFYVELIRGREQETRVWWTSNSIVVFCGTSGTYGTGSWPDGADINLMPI

In the case of `CC(C)C(=O)N[C@H]1[C@H]([C@H](O)[C@H](O)CO)OC(C(=O)O)=C(n2cc(-c3ccccc3C(=O)O)nn2)[C@@H]1O`, the IC50 [1] is reported as 3.9 µM.
`CNC(=N)N[C@H]1C=C(C(=O)O)O[C@@H]([C@H](O)[C@H](O)CO)[C@@H]1NC(C)=O` gave an IC50 [2] of 4.59 µM and an IC50 [3] of 4.59 µM.
`CCCCCO[C@@H]([C@@H]1OC(C(=O)O)=C[C@H](N=C(N)N)[C@H]1NC(C)=O)[C@H](O)CO` gave an IC50 [4] of 0.0356 µM.
Work on `CCCCCCCCCCCCO[C@@H]([C@@H]1OC(C(=O)O)=C[C@H](N=C(N)N)[C@H]1NC(C)=O)[C@H](O)CO` yielded an IC50 [4] of 0.0992 µM.
`CCC(CC)O[C@@H]1C=C(P(=O)(O)OC[C@H]2O[C@@H](OC)[C@H](O)[C@@H](O)[C@H]2O)C[C@H](N)[C@H]1NC(C)=O` gave a Ki [5] of 0.00074 µM.
`CCC(CC)[C@H](NC(C)=O)[C@@H]1C[C@@H](C(=O)O)C[C@H]1N=C(N)N` showed an IC50 [6] of under 0.01 µM and an IC50 [7] of under 0.01 µM.
Work on `CCO[C@@H]([C@@H]1OC(C(=O)O)=C[C@H](N=C(N)N)[C@H]1NC(C)=O)[C@H](O)CO` yielded an IC50 [4] of 0.0733 µM.
For `CCC(CC)O[C@@H]1C2C([C@@H]2C(=O)O)[C@@H](NCc2ccc(-c3ccccc3)cc2)[C@H]1NC(C)=O` (stereo partly specified), the IC50 [8] was 10 µM.
Work on `CCC(CC)O[C@@H]1C2C([C@@H]2C(=O)O)[C@@H](O)[C@H]1NC(C)=O` (stereo partly specified) yielded an IC50 [8] of 10 µM.
`CCC(CC)O[C@@H]1C=C(P(=O)(O)O[C@H]2[C@@H](O)[C@@H](CO)O[C@@H](OC)[C@@H]2O)C[C@H](N)[C@H]1NC(C)=O` gave a Ki [5] of 0.00029 µM.
With `CCC(CC)O[C@@H]1C=C(C(=O)O)C[C@H](n2nncc2-c2cccc(N)c2)[C@H]1NC(C)=O` the IC50 [9] was 0.045 µM and the IC50 [10] was 0.019 µM.
Work on `CC(=O)N[C@H]1[C@H]([C@H](O)[C@H](O)CO)OC(C(=O)O)=C[C@@H]1NC(=N)NO` yielded an IC50 [2] of 4.59 µM and an IC50 [3] of 4.59 µM.
With `CCC(CC)O[C@@H]1C=C(C(=O)O)[C@@H](n2cc(C(O)CC)nn2)[C@H](N)[C@H]1NC(C)=O` (stereo partly specified) the IC50 [11] was 0.1 µM.
For `CCC(CC)O[C@@H]1C=C(C(=O)O)C[C@H](NS(C)(=O)=O)[C@H]1NC(C)=O`, the IC50 [12] was 3.5 µM.
With `CC(=O)N[C@H]1[C@H]([C@H](O)[C@H](O)CO)OC(C(=O)O)=C[C@@H]1NC(=N)N[N+](=O)[O-]` the IC50 [2] was 4.59 µM and the IC50 [3] was 4.59 µM.
With `[N-]=[N+]=N[C@H]1C=C(C(=O)O)O[C@@H]([C@@H](O)[C@H](O)CO)[C@H]1NC(=O)C(F)(F)C(F)(F)C(F)(F)F` the IC50 [13] was 0.03 µM.
With `CCOC(=O)NC(=N)N[C@H]1C=C(C(=O)O)O[C@@H]([C@H](O)[C@H](O)CO)[C@@H]1NC(C)=O` the IC50 [2] was 4.59 µM and the IC50 [3] was 4.59 µM.
For `CO[C@@H]([C@@H]1OC(C(=O)O)=C[C@H](NC(=N)N)[C@H]1NC(C)=O)[C@H](O)CO`, the IC50 [4] was 0.0176 µM.
For `CCC(CC)O[C@@H]1CC(C(=O)O)=C[C@H](N)[C@H]1NC(C)=O`, the EC50 [14] was 12 µM.
Work on `CCC(CC)O[C@@H]1C2C([C@@H]2C(=O)O)[C@@H](NCc2ccccc2)[C@H]1NC(C)=O` (stereo partly specified) yielded an IC50 [8] of 10 µM.
For `[N-]=[N+]=N[C@H]1C=C(C(=O)O)O[C@@H]([C@@H](O)[C@H](O)CO)[C@H]1NC(=O)C(F)(F)F`, the IC50 [13] was 0.03 µM.
Compound `CCCCCCCCO[C@@H]([C@@H]1OC(C(=O)O)=C[C@H](N=C(N)N)[C@H]1NC(C)=O)[C@H](O)CO` has an IC50 [4] of 0.0455 µM.
In the case of `CC(=O)N[C@H]1[C@H]([C@H](O)[C@H](O)CO)OC(C(=O)O)=C[C@@H]1NC(=N)NN`, the IC50 [2] is reported as 4.59 µM and the IC50 [3] is reported as 4.59 µM.
With `CCC(CC)O[C@@H]1CC(C(=O)O)=C[C@H](NC(=N)N)[C@H]1NC(C)=O` the EC50 [14] was 3.9 µM.
Compound `O=C(O)C1=C[C@H](NC(=O)C(F)(F)F)[C@H](NC(=O)C(F)(F)F)[C@H]([C@@H](O)[C@H](O)CO)O1` has an IC50 [13] of 0.03 µM.
Compound `CCCO[C@@H]([C@@H]1OC(C(=O)O)=C[C@H](N=C(N)N)[C@H]1NC(C)=O)[C@H](O)CO` has an IC50 [4] of 0.0818 µM.
In the case of `N=C(N)N[C@@H]1[C@@H](NC(=O)C(F)(F)F)[C@H]([C@H](OC(=O)NCCn2cc(COC[C@H]3O[C@@H](O[C@H]4[C@H](OCc5cn(CCNC(=O)O[C@@H]([C@@H]6O[C@@](F)(C(=O)O)[C@H](F)[C@H](NC(=N)N)[C@H]6NC(=O)C(F)(F)F)[C@H](O)CO)nn5)[C@@H](OCc5cnnn5CCNC(=O)O[C@@H]([C@@H]5O[C@@](F)(C(=O)O)[C@H](F)[C@H](NC(=N)N)[C@H]5NC(=O)C(F)(F)F)[C@H](O)CO)[C@H](OCc5cn(CCNC(=O)O[C@@H]([C@@H]6O[C@@](F)(C(=O)O)[C@H](F)[C@H](NC(=N)N)[C@H]6NC(=O)C(F)(F)F)[C@H](O)CO)nn5)O[C@@H]4COCc4cn(CCNC(=O)O[C@@H]([C@@H]5O[C@@](F)(C(=O)O)[C@H](F)[C@H](NC(=N)N)[C@H]5NC(=O)C(F)(F)F)[C@H](O)CO)nn4)[C@H](OCc4cn(CCNC(=O)O[C@@H]([C@@H]5O[C@@](F)(C(=O)O)[C@H](F)[C@H](NC(=N)N)[C@H]5NC(=O)C(F)(F)F)[C@H](O)CO)nn4)[C@@H](OCc4cn(CCNC(=O)O[C@@H]([C@@H]5O[C@@](F)(C(=O)O)[C@H](F)[C@H](NC(=N)N)[C@H]5NC(=O)C(F)(F)F)[C@H](O)CO)nn4)[C@H]3OCc3cn(CCNC(=O)O[C@@H]([C@@H]4O[C@@](F)(C(=O)O)[C@H](F)[C@H](NC(=N)N)[C@H]4NC(=O)C(F)(F)F)[C@H](O)CO)nn3)nn2)[C@H](O)CO)O[C@@](F)(C(=O)O)[C@@H]1F`, the IC50 [15] is reported as 0.0306 µM.
In the case of `CC(=O)N[C@H]1[C@H]([C@H](O)[C@H](O)CO)OC(C(=O)O)=C(C/C=C/c2cccc3ccccc23)[C@@H]1O`, the Ki [16] is reported as 9.3 µM.
`Cc1ccc(C(=O)N[C@H]2C=C(C(=O)O)O[C@@H]([C@@H](O)[C@H](O)CO)[C@H]2NC(=O)C(F)(F)F)cc1` showed an IC50 [13] of 0.03 µM.
